According to patent US9833497B2, “Human originated EGF domain proteins and use of the same” (CHENGDU SOURCEBIO LIMITED-LIABILITY COMPANY, priority 2013, dated 2017):

Legend:
Assay type in all cases: cell-based
[1] = system: Enterobacter cloacae; assay: MIC against Gram-negative bacteria: Enterobacter cloacae; details: 5×10^5 CFU/mL
How it was run: (§1)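 Bacteria grown in LB at 37° C to McFarland 0.5, resuspended and seeded at 5×10^5 CFU/mL in 96-well plates. Purified human EGF-domain proteins two-fold serially diluted, triplicate wells; cultured at 37° C, shaking 175 rpm. MIC = lowest protein concentration with no growth.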

[2] = system: Pseudomonas aeruginosa; assay: MIC against Gram-negative bacteria: Pseudomonas aeruginosa; details: 5×10^5 CFU/mL
How it was run: as §1

[3] = system: Serratia marcescens; assay: MIC against Gram-negative bacteria: Serratia marcescens; details: 5×10^5 CFU/mL
How it was run: as §1

[4] = system: Aeromonas hydrophila; assay: MIC against Gram-negative bacteria: Aeromonas hydrophila; details: 5×10^5 CFU/mL
How it was run: as §1

[5] = system: Proteus mirabilis; assay: MIC against Gram-negative bacteria: Proteus mirabilis; details: 5×10^5 CFU/mL
How it was run: as §1

[6] = system: Citrobacter diversus; assay: MIC against Gram-negative bacteria: Citrobacter diversus; details: 5×10^5 CFU/mL
How it was run: as §1

[7] = system: Proteus vulgaris; assay: MIC against Gram-negative bacteria: Proteus vulgaris; details: 5×10^5 CFU/mL
How it was run: as §1

[8] = system: E. coli DH5α; assay: Antibacterial activity: MIC and growth curve against E. coli DH5α in 96-well plate; details: minimal inhibitory concentration against E. coli DH5α; 96-well plate, 5×10^5 CFU/mL, 37° C., judged after 8 h
How it was run: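 MIC taken as lowest protein level with no bacterial growth, tracked by A600 every 30 min during 37 °C, 175 rpm culture. Two-fold protein series 50-12.5 μg/mL final, triplicate wells, against 5×10^5 CFU/mL of LB-washed mid-log cells.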

[9] = system: Moraxella catarrhalis; assay: MIC against Gram-negative bacteria: Moraxella catarrhalis; details: 5×10^5 CFU/mL
How it was run: as §1

[10] = system: Klebsiella pneumonia; assay: MIC against Gram-negative bacteria: Klebsiella pneumonia; details: 5×10^5 CFU/mL
How it was run: as §1

[11] = system: E. coli BL21; assay: MIC against Gram-negative bacteria: E. coli BL21; details: E. coli BL21, 5×10^5 CFU/mL
How it was run: as §1

[12] = E. cloacae, 10 h cultivation at 37° C.
[13] = P. aeruginosa, 10 h cultivation at 37° C.
[14] = S. marcescens, 10 h cultivation at 37° C.
[15] = A. hydrophila, 10 h cultivation at 37° C.
[16] = P. mirabilis, 10 h cultivation at 37° C.
[17] = C. diversus, 10 h cultivation at 37° C.
[18] = P. vulgaris, 10 h cultivation at 37° C.
[19] = M. catarrhalis, 10 h cultivation at 37° C.
[20] = K. pneumonia, 10 h cultivation at 37° C.
[21] = Enterobacter cloacae, 96-well plate, 37° C., 10 h
[22] = Pseudomonas aeruginosa, 96-well plate, 37° C., 10 h
[23] = Serratia marcescens, 96-well plate, 37° C., 10 h
[24] = Aeromonas hydrophila, 96-well plate, 37° C., 10 h
[25] = Proteus mirabilis, 96-well plate, 37° C., 10 h
[26] = Citrobacter diversus, 96-well plate, 37° C., 10 h
[27] = Proteus vulgaris, 96-well plate, 37° C., 10 h
[28] = Moraxella catarrhalis, 96-well plate, 37° C., 10 h
[29] = Klebsiella pneumonia, 96-well plate, 37° C., 10 h

Question: How did the “MIC (μg/mL) E. cloacae” value [1, 12] turn out when “PRT757 (RINYCALNKPGCEHECVNMEESYYCRCHRGYTLDPNGKTCS; listed as Homo sapiens)” was run?
Answer: 25 µg/mL

Question: And the “MIC (μg/mL) P. aeruginosa” value [2, 13]?
Answer: 50 µg/mL

Question: What about the “MIC (μg/mL) S. marcescens” value [3, 14] of the same substance?
Answer: 50 µg/mL

Question: What about the “MIC (μg/mL) A. hydrophila” value [4, 15] of the same substance?
Answer: 50 µg/mL

Question: And the “MIC (μg/mL) P. mirabilis” value [5, 16]?
Answer: 12.5 µg/mL

Question: And the “MIC (μg/mL) C. diversus” value [6, 17]?
Answer: 12.5 µg/mL

Question: What about the “MIC (μg/mL) P. vulgaris” value [7, 18] of the same substance?
Answer: 25 µg/mL

Question: What about the MIC [8] of the same substance?
Answer: 50 µg/mL

Question: What about the “MIC (μg/mL) M. catarrhalis” value [9, 19] of the same substance?
Answer: 50 µg/mL

Question: What about the “MIC (μg/mL) K. pneumonia” value [10, 20] of the same substance?
Answer: 12.5 µg/mL

Question: What about the “MIC (μg/mL) E. coli BL21” value ([11]; 10 h cultivation at 37° C.) of the same substance?
Answer: 12.5 µg/mL

Question: How did the “MIC against E. cloacae” value ([1]; Enterobacter cloacae, 10 h cultivation at 37° C.) turn out when “PRT1423 (PVDPCFRANCEYQCQPLNQTSYLCVCAEGFAPIPHEPHRCQ; listed as Homo sapiens)” was run?
Answer: 12.5 µg/mL

Question: What about the “MIC against P. aeruginosa” value ([2]; Pseudomonas aeruginosa, 10 h cultivation at 37° C.) of the same substance?
Answer: 12.5 µg/mL

Question: And the “MIC against S. marcescens” value ([3]; Serratia marcescens, 10 h cultivation at 37° C.)?
Answer: 12.5 µg/mL

Question: And the “MIC against A. hydrophila” value ([4]; Aeromonas hydrophila, 10 h cultivation at 37° C.)?
Answer: 12.5 µg/mL

Question: And the “MIC against P. mirabilis” value ([5]; Proteus mirabilis, 10 h cultivation at 37° C.)?
Answer: 12.5 µg/mL

Question: What about the “MIC against C. diversus” value ([6]; Citrobacter diversus, 10 h cultivation at 37° C.) of the same substance?
Answer: 25 µg/mL

Question: And the “MIC against P. vulgaris” value ([7]; Proteus vulgaris, 10 h cultivation at 37° C.)?
Answer: 50 µg/mL

Question: And the MIC [8]?
Answer: 50 µg/mL

Question: And the “MIC against M. catarrhalis” value ([9]; Moraxella catarrhalis, 10 h cultivation at 37° C.)?
Answer: 50 µg/mL

Question: What about the “MIC against K. pneumonia” value ([10]; Klebsiella pneumonia, 10 h cultivation at 37° C.) of the same substance?
Answer: 12.5 µg/mL

Question: What about the “MIC against E. coli BL21” value ([11]; 10 h cultivation at 37° C.) of the same substance?
Answer: 12.5 µg/mL

Question: How did the “MIC against E. cloacae” value [1, 21] turn out when “PRT1231 (IGPSCLKFCSGRGQCTRHGCKCDPGFSGPACE; listed as Homo sapiens)” was run?
Answer: 50 µg/mL

Question: What about the “MIC against P. aeruginosa” value [2, 22] of the same substance?
Answer: 50 µg/mL

Question: And the “MIC against S. marcescens” value [3, 23]?
Answer: 25 µg/mL

Question: What about the “MIC against A. hydrophila” value [4, 24] of the same substance?
Answer: 100 µg/mL

Question: What about the “MIC against P. mirabilis” value [5, 25] of the same substance?
Answer: 50 µg/mL

Question: And the “MIC against C. diversus” value [6, 26]?
Answer: 50 µg/mL

Question: And the “MIC against P. vulgaris” value [7, 27]?
Answer: 12.5 µg/mL

Question: What about the MIC [8] of the same substance?
Answer: 12.5 µg/mL

Question: And the “MIC against M. catarrhalis” value [9, 28]?
Answer: 12.5 µg/mL

Question: What about the “MIC against K. pneumonia” value [10, 29] of the same substance?
Answer: 12.5 µg/mL

Question: What about the “MIC against E. coli BL21” value ([11]; 96-well plate, 37° C., 10 h) of the same substance?
Answer: 25 µg/mL

Question: Which “MIC (μg/mL) E. cloacae” value [1, 21] does the source give for “PRT4 (LDVTCNIKNGRCEQFCKNSADNKVVCSCTEGYRLAENQKSCE; listed as Homo sapiens)” here?
Answer: 12.5 µg/mL

Question: And the “MIC (μg/mL) P. aeruginosa” value [2, 22]?
Answer: 25 µg/mL

Question: And the “MIC (μg/mL) S. marcescens” value [3, 23]?
Answer: 25 µg/mL

Question: What about the “MIC (μg/mL) A. hydrophila” value [4, 24] of the same substance?
Answer: 25 µg/mL

Question: What about the “MIC (μg/mL) P. mirabilis” value [5, 25] of the same substance?
Answer: 25 µg/mL

Question: And the “MIC (μg/mL) C. diversus” value [6, 26]?
Answer: 12.5 µg/mL

Question: And the “MIC (μg/mL) P. vulgaris” value [7, 27]?
Answer: 50 µg/mL

Question: What about the MIC [8] of the same substance?
Answer: 25 µg/mL

Question: What about the “MIC (μg/mL) M. catarrhalis” value [9, 28] of the same substance?
Answer: 25 µg/mL

Question: What about the “MIC (μg/mL) K. pneumonia” value [10, 29] of the same substance?
Answer: 25 µg/mL

Question: What about the “MIC (μg/mL) E. coli BL21” value ([11]; 96-well plate, 37° C., 10 h) of the same substance?
Answer: 50 µg/mL

Question: Which “MIC (μg/mL) E. cloacae” value [1, 12] does the source give for “PRT255 (DVDECVGLQPVCPQGTTCINTGGSFQCVSPECPEG; listed as Homo sapiens)” here?
Answer: 12.5 µg/mL

Question: And the “MIC (μg/mL) P. aeruginosa” value [2, 13]?
Answer: 12.5 µg/mL

Question: And the “MIC (μg/mL) S. marcescens” value [3, 14]?
Answer: 12.5 µg/mL

Question: And the “MIC (μg/mL) A. hydrophila” value [4, 15]?
Answer: 25 µg/mL

Question: And the “MIC (μg/mL) P. mirabilis” value [5, 16]?
Answer: 100 µg/mL

Question: And the “MIC (μg/mL) C. diversus” value [6, 17]?
Answer: 12.5 µg/mL

Question: And the “MIC (μg/mL) P. vulgaris” value [7, 18]?
Answer: 25 µg/mL

Question: What about the MIC [8] of the same substance?
Answer: 12.5 µg/mL

Question: What about the “MIC (μg/mL) M. catarrhalis” value [9, 19] of the same substance?
Answer: 25 µg/mL

Question: And the “MIC (μg/mL) K. pneumonia” value [10, 20]?
Answer: 12.5 µg/mL

Question: And the “MIC (μg/mL) E. coli BL21” value ([11]; 10 h cultivation at 37° C.)?
Answer: 12.5 µg/mL

Question: “PRT415 (DINECLSISAPCPIGHTCINTEGSYTCQKNVPNCGRGYHLNEEGTRCV; listed as Homo sapiens)” was tested. Which MIC [1, 12] did it give?
Answer: 25 µg/mL

Question: What about the MIC [2, 13] of the same substance?
Answer: 25 µg/mL

Question: What about the MIC [3, 14] of the same substance?
Answer: 25 µg/mL

Question: What about the MIC [4, 15] of the same substance?
Answer: 12.5 µg/mL

Question: What about the MIC [5, 16] of the same substance?
Answer: 25 µg/mL

Question: And the MIC [6, 17]?
Answer: 25 µg/mL

Question: What about the MIC [7, 18] of the same substance?
Answer: 12.5 µg/mL

Question: And the MIC [8]?
Answer: 25 µg/mL

Question: What about the MIC [9, 19] of the same substance?
Answer: 50 µg/mL

Question: And the MIC [10, 20]?
Answer: 50 µg/mL

Question: And the MIC ([11]; 10 h cultivation at 37° C.)?
Answer: 12.5 µg/mL

Question: For “PRT801 (FGYGCQQLCECMNNSTCDHVTGTCYCSPGFKGIRCD; listed as Homo sapiens)”, which “MIC (μg/mL) E. cloacae” value [1, 12] is on record?
Answer: 12.5 µg/mL

Question: What about the “MIC (μg/mL) P. aeruginosa” value [2, 13] of the same substance?
Answer: 50 µg/mL

Question: What about the “MIC (μg/mL) S. marcescens” value [3, 14] of the same substance?
Answer: 12.5 µg/mL

Question: What about the “MIC (μg/mL) A. hydrophila” value [4, 15] of the same substance?
Answer: 25 µg/mL

Question: And the “MIC (μg/mL) P. mirabilis” value [5, 16]?
Answer: 12.5 µg/mL

Question: And the “MIC (μg/mL) C. diversus” value [6, 17]?
Answer: 12.5 µg/mL

Question: And the “MIC (μg/mL) P. vulgaris” value [7, 18]?
Answer: 12.5 µg/mL

Question: What about the MIC [8] of the same substance?
Answer: 25 µg/mL

Question: And the “MIC (μg/mL) M. catarrhalis” value [9, 19]?
Answer: 12.5 µg/mL

Question: What about the “MIC (μg/mL) K. pneumonia” value [10, 20] of the same substance?
Answer: 25 µg/mL

Question: What about the “MIC (μg/mL) E. coli BL21” value ([11]; 10 h cultivation at 37° C.) of the same substance?
Answer: 12.5 µg/mL
